Experimental data reported in patent publication US7399868B2, “4-(Heteroaryl-methyl and substituted heteroaryl-methyl)-imidazole-2-thiones acting as alpha2 adrenergic agonists” (Allergan, Inc., priority 2004, dated 2008).

Tests used:
[1] = molecular target: T1, alpha2B adrenergic receptor (Homo sapiens, UniProt P18089); assay: Receptor Selection and Amplification Technology (RSAT) assay, alpha2B; type: cell-based; settings: ratio of maximal effect to that of standard full agonist brimonidine (UK14304)
T1 construct: expressed in transfected cells; host or cells: NIH-3T3
T1 sequence (P18089 1-450): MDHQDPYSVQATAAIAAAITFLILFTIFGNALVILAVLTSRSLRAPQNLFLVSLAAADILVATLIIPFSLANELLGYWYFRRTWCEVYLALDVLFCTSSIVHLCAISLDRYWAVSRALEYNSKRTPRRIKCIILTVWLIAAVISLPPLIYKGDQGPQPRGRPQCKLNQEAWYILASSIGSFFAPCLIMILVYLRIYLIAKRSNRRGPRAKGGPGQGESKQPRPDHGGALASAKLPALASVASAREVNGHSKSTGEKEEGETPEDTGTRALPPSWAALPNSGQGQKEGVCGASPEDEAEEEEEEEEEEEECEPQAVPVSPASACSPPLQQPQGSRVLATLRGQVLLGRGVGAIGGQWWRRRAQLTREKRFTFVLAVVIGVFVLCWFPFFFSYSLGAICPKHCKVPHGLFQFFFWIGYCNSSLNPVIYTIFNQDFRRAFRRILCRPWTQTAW
From the text: (§1) The imidazole-2-thione compounds of the invention are agonists of alpha2 adrenergic receptors. […] Al., 1995, Pharmacol. Toxicol. 76, pp. 308-311 (incorporated herein by reference) and is also described below. Another reference pertinent to this assay is Conklin et al. (1993) Nature 363:274-6, also incorporated herein by reference.
(§2) Receptor Selection and Amplification Technology (RSAT) Assay
The RSAT assay measures a receptor-mediated loss of contact inhibition that results in selective proliferation of receptor-containing cells in a mixed population of confluent cells. The increase in cell number is assessed with an appropriate transfected marker gene such as ∃-galactosidase, the activity of which can be easily measured in a 96-well format. Receptors that activate the G protein, Gq, elicit this response. Alpha2 receptors, which normally couple to Gi, activate the RSAT response when coexpressed with a hybrid Gq protein that has a Gi receptor recognition domain, called Gq/i5.
NIH-3T3 cells are plated at a density of 2×10^6 cells in 15 cm dishes and maintained in Dulbecco's modified Eagle's medium supplemented with 10% calf serum. One day later, cells are cotransfected by calcium phosphate precipitation with mammalian expression plasmids encoding p-SV-β-galactosidase (5-10 μg), receptor (1-2 μg) and G protein (1-2 μg). 40 μg salmon sperm DNA may also be included in the transfection mixture. Fresh media is added on the following day and 1-2 days later, cells are harvested and frozen in 50 assay aliquots. Cells are thawed and 100 μl added to 100 μl aliquots of various concentrations of drugs in triplicate in 96-well dishes. Incubations continue 72-96 hr at 37° C. After washing with phosphate-buffered saline, ∃-galactosidase enzyme activity is determined by adding 200 μl of the chromogenic substrate (consisting of 3.5 mM o-nitrophenyl-β-D-galactopyranoside and 0.5% nonidet P-40 in phosphate buffered saline), incubating overnight at 30° C. and measuring optical density at 420 nm. The absorbance is a measure of enzyme activity, which depends on cell number and reflects a receptor-mediated cell proliferation. The efficacy or intrinsic activity is calculated as a ratio of the maximal effect of the drug to the maximal effect of a standard full agonist for each receptor subtype. Brimonidine, also called UK14304, the chemical structure of which is shown below, is used as the standard agonist for the alpha2A, alpha2B and alpha2C receptors.
The results of the RSAT assay with several exemplary compounds of the invention are disclosed in Table 1 above together with the chemical formulas of these examplary compounds. NA stands for “not active” at concentrations less than 10 micromolar.

[2] = test system: rats with ligated L5 and L6 spinal nerves; assay: Chung model of neuropathic pain (tactile allodynia, von Frey hairs); type: in vivo, rat; settings: 30 min following drug administration, p<0.001 compared to pretreatment
From the text: Alleviation of Chronic Pain
A model in accordance with Kim and Chung 1992, Pain […], pp 355-363 (Chung model), for chronic pain (in particular peripheral neuropathy) involves the surgical ligation of the L5 (and optionally the L6) spinal nerves on one side in experimental animals. Rats recovering from the surgery gain weight and display a level of general activity similar to that of normal rats. However, these rats develop abnormalities of the foot, wherein the hindpaw is moderately everted and the toes are held together. More importantly, the hindpaw on the side affected by the surgery appears to become sensitive to pain from low-threshold mechanical stimuli, such as that producing a faint sensation of touch in a human, within about 1 week following surgery. This sensitivity to normally non-painful touch is called “tactile allodynia” and lasts for at least two months. […]
Tactile allodynia is measured prior to and 30 minutes after drug administration using von Frey hairs that are a series of fine hairs with incremental differences in stiffness. […] The applied force has been calculated to range from 0.41 to 15.1 grams. […] The 50% paw withdrawal threshold is determined using the method of Dixon, W. J., Ann. […] The post-drug threshold is compared to the pre-drug threshold and the percent reversal of tactile sensitivity is calculated based on a normal threshold of 15.1 grams. […]

[3] = test system: male Sprague-Dawley rats; assay: Sedative activity (exploratory behavior/locomotor) in rats; type: in vivo, rat; settings: intraperitoneally, up to a dose of 1 mg/kg
Protocol: To test sedation, six male Sprague-Dawley rats are given up to 3 mg/kg of the test compound in a saline or DMSO vehicle by intraperitoneal injection (i.p.). Sedation is graded 30 minutes following administration of the drug by monitoring locomotor skills as follows.
The Sprague-Dawley rats are weighed and 1 ml/kg body weight of an appropriate concentration (ie. 3 mg/ml for a final dose of 3 mg/kg) drug solution is injected intraperitoneally. Typically the test compound is formulated in approximately 10 to 50% DMSO. The results are compared to controls that are injected with 1 ml/kg saline or 10 to 50% DMSO. Rat activity is then determined 30 minutes after injection of the drug solution. Rats are placed in a dark covered chamber and a digicom analyzer (Omnitech Electronic) quantitates their exploratory behavior for a five-minute period. The machine records each time the rat interrupts an array of 32 photoelectric beams in the X and Y orientation.
Effects on Cardiovascular System

[4] = molecular target: T2, alpha2C adrenergic receptor (Homo sapiens, UniProt P18825); assay: Receptor Selection and Amplification Technology (RSAT) assay, alpha2C; type: cell-based; settings: ratio of maximal effect to that of standard full agonist brimonidine (UK14304)
T2 construct: expressed in transfected cells; host or cells: NIH-3T3
T2 sequence (P18825 1-462): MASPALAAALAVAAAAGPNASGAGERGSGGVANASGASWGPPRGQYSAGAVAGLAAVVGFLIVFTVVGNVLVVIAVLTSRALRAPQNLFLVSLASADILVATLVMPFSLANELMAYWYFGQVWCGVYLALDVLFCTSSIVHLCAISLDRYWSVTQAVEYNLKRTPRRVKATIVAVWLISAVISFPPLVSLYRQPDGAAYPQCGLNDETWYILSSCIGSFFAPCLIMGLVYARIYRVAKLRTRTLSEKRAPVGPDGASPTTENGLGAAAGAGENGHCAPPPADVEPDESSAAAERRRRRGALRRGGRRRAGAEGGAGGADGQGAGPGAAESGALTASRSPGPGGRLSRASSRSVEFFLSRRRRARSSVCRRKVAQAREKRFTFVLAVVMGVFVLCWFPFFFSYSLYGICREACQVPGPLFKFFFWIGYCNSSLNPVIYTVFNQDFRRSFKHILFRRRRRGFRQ
From the text: as §1, §2
The RSAT assay measures a receptor-mediated loss of contact inhibition that results in selective proliferation of receptor-containing cells in a mixed population of confluent cells. The increase in cell number is assessed with an appropriate transfected marker gene such as ∃-galactosidase, the activity of which can be easily measured in a 96-well format. […]
NIH-3T3 cells are plated at a density of 2×10^6 cells in 15 cm dishes and maintained in Dulbecco's modified Eagle's medium supplemented with 10% calf serum. […] After washing with phosphate-buffered saline, ∃-galactosidase enzyme activity is determined by adding 200 μl of the chromogenic substrate (consisting of 3.5 mM o-nitrophenyl-β-D-galactopyranoside and 0.5% nonidet P-40 in phosphate buffered saline), incubating overnight at 30° C. and measuring optical density at 420 nm. The absorbance is a measure of enzyme activity, which depends on cell number and reflects a receptor-mediated cell proliferation. […]

Q: With `CC(c1c[nH]c(=S)[nH]1)c1coc2ccccc12` (stereo not drawn) [Compound 14, 4-(1-benzofuran-3-yl-ethyl)-1,3-dihydro-imidazole-2-thione] as the compound, how does the “Intrinsic Activity Alpha 2B” value [1] read?
A: 1.0

Q: What about the “% Pain Reversal” value ([2]; 30 μg/kg i.p.) of the same compound?
A: 20%

Q: What about the “% Pain Reversal” value ([2]; 300 μg/kg i.p.) of the same compound?
A: 80%

Q: For `Cc1cccc2ccn(Cc3c[nH]c(=S)[nH]3)c12` [Compound 2, 4-(7-methyl-indol-1-ylmethyl)-1,3-dihydro-imidazole-2-thione], which “Intrinsic Activity Alpha 2B” value [1] is on record?
A: 1.01

Q: With `S=c1[nH]cc(Cn2ccc3ccc(Cl)c(Cl)c32)[nH]1` [Compound 6, 4-(6,7-Dichloro-indol-1-ylmethyl)-1,3-dihydro-imidazole-2-thione] as the compound, how does the “Intrinsic Activity Alpha 2B” value [1] read?
A: 0.98

Q: Which “Intrinsic Activity Alpha 2B” value [1] does the source give for `Cc1cccc(C(C)c2c[nH]c(=S)[nH]2)n1` (stereo not drawn) [Compound 9, 4-[1-(6-methyl-pyridin-2-yl)-ethyl]-1,3-dihydro-imidazole-2-thione] here?
A: 1.16

Q: `S=c1[nH]cc(Cn2ccc3ccc(Cl)nc32)[nH]1` [Compound 8, 4-(6-Chloro-pyrrolo[2,3-b]pyridin-1-ylmethyl)-1,3-dihydro-imidazole-2-thione] was tested. Which “Intrinsic Activity Alpha 2B” value [1] did it give?
A: 0.76

Q: Which results are given for `Fc1cccc2ccn(Cc3c[nH]c(=S)[nH]3)c12` [Compound 3, 4-(7-fluoro-indol-1-ylmethyl)-1,3-dihydro-imidazole-2-thione]?
A: Intrinsic Activity Alpha 2B [1]: 1.07; sedative effect [3]: no sedative effect

Q: With `S=c1[nH]cc(CN2CCCc3ccccc32)[nH]1` [Compound 11, 4-(3,4-dihydro-2H-quinolin-1-ylmethyl)-1,3-dihydro-imidazole-2-thione] as the compound, how does the “Intrinsic Activity Alpha 2B” value [1] read?
A: 1.13

Q: How did the “Intrinsic Activity Alpha 2B” value [1] turn out when `CC(c1c[nH]c(=S)[nH]1)c1ccnc2c1CCCC2` (stereo not drawn) [Compound 12, 4-[1-(5,6,7,8-tetrahydro-quinolin-4-yl)-ethyl]-1,3-dihydro-imidazole-2-thione] was run?
A: 0.99

Q: For `S=c1[nH]cc(Cn2ccc3cccc(Cl)c32)[nH]1` [Compound 4, 4-(7-chloro-indol-1-ylmethyl)-1,3-dihydro-imidazole-2-thione], which “Intrinsic Activity Alpha 2B” value [1] is on record?
A: 1.17

Q: How did the “Intrinsic Activity Alpha 2B” value [1] turn out when `S=c1[nH]cc(Cn2ccc3ccnc(Cl)c32)[nH]1` [Compound 7, 4-(7-chloro-pyrrolo[2,3-c]pyridin-1-ylmethyl)-1,3-dihydro-imidazole-2-thione] was run?
A: 1.5

Q: How did the “Intrinsic Activity Alpha 2B” value [1] turn out when `S=c1[nH]cc(Cn2ccc3cccc(Br)c32)[nH]1` [Compound 5, 4-(7-Bromo-indol-1-ylmethyl)-1,3-dihydro-imidazole-2-thione] was run?
A: 1.01

Q: And the “Intrinsic Activity Alpha 2C” value [4]?
A: 0.77

Q: What about the sedative effect [3] of the same compound?
A: no sedative effect

Q: How did the “Intrinsic Activity Alpha 2B” value [1] turn out when `S=c1[nH]cc(Cn2ccc3c(Cl)cccc32)[nH]1` [Compound 1, 4-(4-chloro-indol-1-ylmethyl)-1,3-dihydro-imidazole-2-thione] was run?
A: 1.17

Q: Which “Intrinsic Activity Alpha 2B” value [1] does the source give for `S=c1[nH]cc(Cc2cccs2)[nH]1` [Compound 10, 4-thiophen-2-ylmethyl-1,3-dihydro-imidazole-2-thione] here?
A: 1.09
